Where a name gives a salt, the structure may show the parent alone.
Experiments:
Format in all cases: physicochemical
[1] = Binary solvent evaporation crystallisation of sorbate salt (Example 10, Experiment 6); settings: sorbate salt Form A evaporated from MeOH (10 vol) plus solvent B (5 vol), one solvent B per sample
Source text: Each vial was capped with aluminium foil, pierced, and allowed to stand undisturbed until the evaporation is completed.

[2] = Vapour diffusion of the monofumarate salt (Experiment Reference 13); settings: input Sample Reference 1, Solvent A DMSO, Solvent B: 13-B TBME, 13-C water, patterns v. disordered
Procedure: The tabernanthalog monofumarate salt (Sample Reference 1, Pattern #1, 3×75 mg, 1 wt) was weighed out in to 3 separate snap-top vials and DMSO (375 ul, 5 vol) was charged to each vial. Gentle warning was applied to ensure full dissolution and the vials (open) were placed inside amber jars that contained 6 ml of DCM (13-A) (Experiment Reference 13-Sample Reference A), tBME (13-B) (Experiment Reference 13-Sample Reference B) and water (13-C) (Experiment Reference 13-Sample Reference C).
The 3 jars that contained the vials were left standing at 20° C., to allow slow movement of the diffusant solvent from the outer jar into the solvent inside the smaller, open wide-necked vessel and promote crystallization by altering the solvent composition.

[3] = Competitive suspension equilibration monofumarate Form A and Form B (Experiment Reference 16); settings: competitive suspension equilibration of Form A (8-A4) and Form B (Sample B-A2) in TBME (5.0 vol); 16-A at 20 °C, 16-B at 40 °C; t = 24 h
Procedure: Competitive suspension equilibration (Form A and Form B) (Experiment Reference 16) a. Experimental Procedure Equimolar quantities of Form A (Pattern #6a, 25.4 mg, 1 wt, 8-A4; (Experiment Reference 8-Sample Reference A4)) and Form B (Pattern #2a, 25.0 mg, 1 wt, Sample B-A2) were suspended in tBME (250 μl, 5.0 vol). The first experiment was agitated at 20° C., (16-A) (Experiment Reference 16-Sample Reference A), while the other was agitated at 40° C. (16-B) (Experiment Reference 16-Sample Reference B). The suspension was monitored by XRPD analysis.
Competitive suspension equilibration of Form A (8-A4) (Experiment Reference 8-Sample Reference A4) versus Form B (Sample B-A2) was performed at 20° C. […] Summary of competitive suspension equilibration between Form A and Form B (16-A (Experiment Reference 16-Sample Reference A) and 16-B (Experiment Reference 16-Sample Reference B)) is provided in Table 153A.

[4] = Suspension equilibration (competitive; ageing cycle; drying of wet pellets), relative stability of forms
Procedure: FIG. 94 depicts the XRPD overlay of, form top to bottom, a mixture of Tabernanthalog·0.5 Fumarate and Tabernanthalog·Fumarate equilibrated in acetonitrile at 20° C., a mixture of Tabernanthalog·0.5 Fumarate and Tabernanthalog·Fumarate equilibrated in acetonitrile at 40° C. and Tabernanthalog fumarate Pattern 19.
FIG. 283 depicts the timepoints of the suspension equilibration in tBME at 20° C. XRPD diffractogram overlay of, from top to bottom, Sample B-A2 (Form B, Pattern #2a), 8-A4 (Form A, Pattern #6a), 16-A1 (t=24 h, 16-A2 (t=48 h), 16-A3 (t=108 h), 16-A4 (t=192 h) 16-A8 (t=4 weeks).
FIG. 284 depicts the timepoints of the suspension equilibration in tBME at 40° C. XRPD diffractogram overlay of, from top to bottom, Sample B-A2 (Form B, Pattern #2a), 8-A4 (Form A, Pattern #6a), 16-B1 (t=24 h, 16-B2 (t=48 h), 16-B3 (t=108 h), 16-B4 (t=192 h) 16-B8 (t=4 weeks).

[5] = Re-proportionation examination hemifumarate / monofumarate (Example 5, Experiment References 5 and 10)
Procedure: (5-B4; Experiment Reference 5-Sample Reference B4) and 40° C. (5-B5; Experiment Reference 5-Sample Reference B5). The output was analyzed by XRPD (FIG. 94).
Purified water (250 ml, 5 vol) was subsequently added, and the suspension was stirred at 50° C. for ca. 24 h.
Purified water (250 ml, 5 vol) was subsequently added, and the suspension was stirred at 20° C. for ca. 24 h.

[6] = Qualitative solubility screen of the tabernanthalog monofumarate salt in solvents (Example 5, Experiment Reference 1; Example 2)
Procedure: Consistent with Example 1, samples were dissolved in various solvents/solvent systems and cooled to isolate solid material.
Tabernanthalog fumarate dissolved at 5 vol (200 mg/mL) only at reflux in two solvents, water and methanol. At 15 vol the product dissolved in both refluxing butanol and ethanol. Consistent with Example 1, the dissolved samples were cooled. On cooling, each of the four effective solvents yielded solid material. The solids thus obtained were analyzed by XRPD yielding diffractograms with novel peaks from products isolated from each of the four protic solvents.
The tabernanthalog monofumarate salt (Pattern #1, Sample Reference 1, 25 mg, 1 wt) was weighed out in 20 separate vials to qualitatively examine the solubility in an array of diverse solvents. […] If insoluble at 5 vol, the solvent quantity was increased to 10 vol, 15 vol and 20 vol of the respective solvent. […] The insoluble suspensions were additionally worked up for XRPD analysis. The resultant powder patterns were subsequently cross-referenced against the input supplied material.

[7] = Stability examination of supplied monofumarate material at 40° C./75% RH (Example 5, Experiment Reference 2); settings: 75% RH at 40° C., up to 5 w
[8] = Standing of solid forms over time (form by XRPD); settings: amorphous input; overnight, ambient conditions
Source text: FIG. 844 depicts the XRPD profile of Experiment 1-Sample D2 (Tabernanthalog·Sorbate, Form A).

CC=CC=CC(=O)O.COc1ccc2c3c([nH]c2c1)CCN(C)CC3 [Experiment 6-Sample C]
XRPD (dried under nitrogen) [1]: Form A

COc1ccc2c3c([nH]c2c1)CCN(C)CC3.O=C(O)/C=C/C(=O)O [Sample 13-B]
XRPD crystallinity (oven dried) [2]: Pattern #24 | XRPD crystallinity (wet pellet) [2]: Pattern #24

COc1ccc2c3c([nH]c2c1)CCN(C)CC3.O=C(O)/C=C/C(=O)O [Pattern 16-B]
XRPD (24 h, -A1) [3]: Form A > Form B

COc1ccc2c3c([nH]c2c1)CCN(C)CC3 [Form B]
form change under competitive suspension equilibration conditions ([4]; in the presence of Form A): slowly evolves into Form A

C/C=C/C=C/C(=O)O.COc1ccc2c3c([nH]c2c1)CCN(C)CC3 [Experiment 6-Sample D]
XRPD (dried under nitrogen) [1]: Form A

COc1ccc2c3c([nH]c2c1)CCN(C)CC3 [tabernanthalog hemifumarate]
change of salt stoichiometry during an ageing cycle ([4]; ageing cycle): re-proportionated into the fumarate salt | re-proportionation of the hemi-salt into the monofumarate salt ([5]; Expt. #1: equilibrated in acetonitrile at 20° C., 20 h time point): did not re-proportionate | outcome of competitive equilibration of hemifumarate and monofumarate ([5]; Expt. #2: acetonitrile, 48 h at 20° C. and 18 h at 40° C., XRPD): re-proportionation into the unary-fumarate appeared to be favored over the hemi-fumarate

COc1ccc2c3c([nH]c2c1)CCN(C)CC3 [tabernanthalog monofumarate salt, 8-methoxy-3-methyl-1H,2H,3H,4H,5H,6H-azepino[4,5-b]indole fumarate]
solubility in common solvents ([6]; variety of solvents): sparingly soluble in most of the common solvents investigated | solubility ([6]; water, methanol (two separate solvents), water, thermodynamic from solid, reflux, read-out: soluble in methanol/water at reflux): ≥ 200 mg/mL | physical and chemical stability ([7]; open vial and double polyethene bagged, XRPD, HPLC, TGA, DSC, fumarate): physically and chemically stable | change in chemical purity (HPLC) [7]: did not show significant changes in chemical purity

C/C=C/C=C/C(=O)O.COc1ccc2c3c([nH]c2c1)CCN(C)CC3 [Experiment 6-Sample E]
XRPD (dried under nitrogen) [1]: Form A

COc1ccc2c3c([nH]c2c1)CCN(C)CC3.O=C(O)/C=C/C(=O)O [Sample 13-C]
XRPD crystallinity (oven dried) [2]: Pattern #23 | XRPD crystallinity (wet pellet) [2]: Pattern #23

CC=CC=CC(=O)O.COc1ccc2c3c([nH]c2c1)CCN(C)CC3 [Experiment 6-Sample A]
XRPD (dried under nitrogen) [1]: Pattern #1

C/C=C/C=C/C(=O)O.COc1ccc2c3c([nH]c2c1)CCN(C)CC3 [Experiment 1-Sample D1]
form by XRPD after standing overnight in ambient conditions [8]: crystalline material

Source: patent publication US20230257385A1, “SALT AND SOLID FORMS OF TABERNANTHALOG” (priority 2021, published 2023)
